Assay in all cases: DSF 100 kinase selectivity screen;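 further: compound tested at 20 µM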
Holding throughout (type): binding

Test [1] has as its target T1, ~100 representative kinases (Homo sapiens, UniProt P11362).
T1 construct: Recombinant protein kinase domains with a concentration of 2 μM
Particulars: protein FGFR1; average of three replicates. In a few lines:
(§1)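 Each kinase domain, at 2 μM, is mixed with 20 μM test compound and SYPRO Orange in Hepes (20 mM, pH 7.5) with 500 mM NaCl. Temperature is then raised at 3°C/min and fluorescence-monitored unfolding yields the melting temperature change, ΔTm in degrees Celsius.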

Test [2] deals with T2, ~100 representative kinases (Homo sapiens, UniProt P07332).
T2 construct: Recombinant protein kinase domains with a concentration of 2 μM
Conditions: protein FESA; average of three replicates. In a few lines: as §1

The target of test [3] is T3, ~100 representative kinases (Homo sapiens, UniProt Q6PHR2).
T3 construct: Recombinant protein kinase domains with a concentration of 2 μM
T3 sequence (Q6PHR2 1-472): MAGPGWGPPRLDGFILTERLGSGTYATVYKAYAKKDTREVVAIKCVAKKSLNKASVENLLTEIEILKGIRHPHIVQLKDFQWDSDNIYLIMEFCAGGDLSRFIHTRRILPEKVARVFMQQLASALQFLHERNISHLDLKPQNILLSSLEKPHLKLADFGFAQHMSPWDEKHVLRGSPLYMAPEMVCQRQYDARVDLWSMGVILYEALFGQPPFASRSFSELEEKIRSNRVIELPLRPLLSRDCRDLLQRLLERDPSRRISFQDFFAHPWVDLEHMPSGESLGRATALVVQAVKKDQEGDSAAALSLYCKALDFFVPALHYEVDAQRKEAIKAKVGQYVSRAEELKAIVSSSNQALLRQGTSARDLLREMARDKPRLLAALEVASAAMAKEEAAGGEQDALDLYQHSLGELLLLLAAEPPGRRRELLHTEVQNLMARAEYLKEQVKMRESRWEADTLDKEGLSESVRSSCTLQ
Particulars: Protein ULK3; DSF; average of three replicates. In a few lines: as §1

In test [4] the target is T4, ~100 representative kinases (Homo sapiens, UniProt P52564).
T4 construct: Recombinant protein kinase domains with a concentration of 2 μM
T4 sequence (P52564 1-334): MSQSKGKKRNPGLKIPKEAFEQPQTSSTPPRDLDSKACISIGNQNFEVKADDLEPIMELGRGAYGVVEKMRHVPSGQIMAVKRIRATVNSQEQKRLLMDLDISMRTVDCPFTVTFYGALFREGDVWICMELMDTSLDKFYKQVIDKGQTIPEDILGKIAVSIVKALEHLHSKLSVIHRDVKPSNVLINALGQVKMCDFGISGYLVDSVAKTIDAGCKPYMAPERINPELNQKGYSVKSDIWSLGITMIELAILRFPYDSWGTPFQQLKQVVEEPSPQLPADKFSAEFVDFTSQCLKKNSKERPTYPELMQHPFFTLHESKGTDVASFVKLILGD
Particulars: protein MAP2K6; average of three replicates. The method in brief:
as §1

In test [5] the target is T5, ~100 representative kinases (Homo sapiens, UniProt P12931).
T5 construct: Recombinant protein kinase domains with a concentration of 2 μM
Conditions: Protein SRC; DSF; average of three replicates. In a few lines: as §1

Test [6] deals with T6, ~100 representative kinases (Homo sapiens, UniProt Q99640).
T6 construct: Recombinant protein kinase domains with a concentration of 2 μM
T6 sequence (Q99640 1-499): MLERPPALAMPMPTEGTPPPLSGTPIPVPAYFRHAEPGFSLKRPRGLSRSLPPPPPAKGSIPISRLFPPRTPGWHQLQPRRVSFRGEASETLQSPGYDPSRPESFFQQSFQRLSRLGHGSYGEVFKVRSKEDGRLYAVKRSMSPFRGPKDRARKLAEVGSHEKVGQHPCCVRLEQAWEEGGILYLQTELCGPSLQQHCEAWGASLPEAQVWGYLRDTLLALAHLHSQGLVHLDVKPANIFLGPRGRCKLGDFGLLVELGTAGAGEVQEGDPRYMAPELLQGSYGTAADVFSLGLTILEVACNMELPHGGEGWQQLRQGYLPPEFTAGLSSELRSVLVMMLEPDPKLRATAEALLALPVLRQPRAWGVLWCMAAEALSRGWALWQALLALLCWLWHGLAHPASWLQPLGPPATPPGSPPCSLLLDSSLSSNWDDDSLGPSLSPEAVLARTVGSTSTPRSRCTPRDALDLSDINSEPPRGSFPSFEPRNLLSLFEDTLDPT
Conditions: protein PKMYT1; average of three replicates. The method in brief: as §1

Test [7] addresses T7, ~100 representative kinases (Homo sapiens, UniProt Q00532).
T7 construct: Recombinant protein kinase domains with a concentration of 2 μM
Particulars: Protein CDKL1; average of three replicates. In a few lines: as §1

In test [8] the target is T8, ~100 representative kinases (Homo sapiens, UniProt P54756).
T8 construct: Recombinant protein kinase domains with a concentration of 2 μM
Particulars: Protein EPHA5; average of three replicates. In a few lines: as §1

The target of test [9] is T9, ~100 representative kinases (Homo sapiens, UniProt Q9UKI8).
T9 construct: Recombinant protein kinase domains with a concentration of 2 μM
T9 sequence (Q9UKI8 1-766): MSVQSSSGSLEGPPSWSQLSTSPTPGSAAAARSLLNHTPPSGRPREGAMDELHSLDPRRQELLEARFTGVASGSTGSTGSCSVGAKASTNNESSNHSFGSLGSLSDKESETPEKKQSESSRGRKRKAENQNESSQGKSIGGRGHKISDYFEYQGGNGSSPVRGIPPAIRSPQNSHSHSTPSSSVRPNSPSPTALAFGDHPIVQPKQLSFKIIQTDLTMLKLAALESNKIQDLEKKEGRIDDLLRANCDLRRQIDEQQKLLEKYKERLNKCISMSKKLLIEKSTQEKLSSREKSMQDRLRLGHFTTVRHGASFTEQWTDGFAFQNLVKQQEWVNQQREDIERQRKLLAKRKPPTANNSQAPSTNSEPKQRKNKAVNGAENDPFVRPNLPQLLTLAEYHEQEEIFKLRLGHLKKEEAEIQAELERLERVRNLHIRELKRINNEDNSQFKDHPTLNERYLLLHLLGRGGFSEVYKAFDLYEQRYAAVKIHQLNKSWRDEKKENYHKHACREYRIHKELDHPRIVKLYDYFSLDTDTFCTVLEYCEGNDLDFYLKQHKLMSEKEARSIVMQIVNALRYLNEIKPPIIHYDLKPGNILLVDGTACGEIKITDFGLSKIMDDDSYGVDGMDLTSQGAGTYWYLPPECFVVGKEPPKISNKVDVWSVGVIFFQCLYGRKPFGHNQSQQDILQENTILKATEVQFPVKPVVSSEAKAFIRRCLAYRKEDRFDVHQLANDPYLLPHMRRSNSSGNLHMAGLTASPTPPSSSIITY
Particulars: Protein TLK1; DSF; average of three replicates. The method in brief: as §1

T8 sequence (P54756 25-1037): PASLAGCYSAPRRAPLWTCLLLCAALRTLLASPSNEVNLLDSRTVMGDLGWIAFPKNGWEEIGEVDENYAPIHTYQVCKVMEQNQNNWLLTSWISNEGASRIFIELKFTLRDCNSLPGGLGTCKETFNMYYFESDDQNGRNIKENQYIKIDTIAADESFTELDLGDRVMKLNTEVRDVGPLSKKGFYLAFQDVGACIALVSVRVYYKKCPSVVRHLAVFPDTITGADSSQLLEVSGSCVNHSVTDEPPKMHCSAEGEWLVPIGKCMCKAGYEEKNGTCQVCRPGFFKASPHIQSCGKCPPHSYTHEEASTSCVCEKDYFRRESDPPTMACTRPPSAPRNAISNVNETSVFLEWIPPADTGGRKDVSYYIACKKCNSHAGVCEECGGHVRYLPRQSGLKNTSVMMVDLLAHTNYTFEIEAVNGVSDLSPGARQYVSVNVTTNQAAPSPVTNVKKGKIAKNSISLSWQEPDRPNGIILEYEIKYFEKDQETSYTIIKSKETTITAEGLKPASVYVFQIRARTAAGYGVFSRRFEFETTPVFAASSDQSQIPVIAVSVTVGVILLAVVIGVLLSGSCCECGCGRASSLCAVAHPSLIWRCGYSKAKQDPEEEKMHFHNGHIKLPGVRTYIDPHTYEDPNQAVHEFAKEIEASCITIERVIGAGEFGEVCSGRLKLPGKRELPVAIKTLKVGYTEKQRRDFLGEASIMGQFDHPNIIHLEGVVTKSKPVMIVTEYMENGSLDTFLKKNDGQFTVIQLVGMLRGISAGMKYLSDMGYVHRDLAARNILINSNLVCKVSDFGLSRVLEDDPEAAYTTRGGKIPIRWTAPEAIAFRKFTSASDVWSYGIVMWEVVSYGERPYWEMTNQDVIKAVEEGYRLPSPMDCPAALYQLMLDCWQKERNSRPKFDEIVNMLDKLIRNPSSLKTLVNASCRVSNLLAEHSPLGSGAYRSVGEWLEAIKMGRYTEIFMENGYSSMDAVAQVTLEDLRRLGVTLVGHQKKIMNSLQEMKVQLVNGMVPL
T1 sequence (P11362 22-822): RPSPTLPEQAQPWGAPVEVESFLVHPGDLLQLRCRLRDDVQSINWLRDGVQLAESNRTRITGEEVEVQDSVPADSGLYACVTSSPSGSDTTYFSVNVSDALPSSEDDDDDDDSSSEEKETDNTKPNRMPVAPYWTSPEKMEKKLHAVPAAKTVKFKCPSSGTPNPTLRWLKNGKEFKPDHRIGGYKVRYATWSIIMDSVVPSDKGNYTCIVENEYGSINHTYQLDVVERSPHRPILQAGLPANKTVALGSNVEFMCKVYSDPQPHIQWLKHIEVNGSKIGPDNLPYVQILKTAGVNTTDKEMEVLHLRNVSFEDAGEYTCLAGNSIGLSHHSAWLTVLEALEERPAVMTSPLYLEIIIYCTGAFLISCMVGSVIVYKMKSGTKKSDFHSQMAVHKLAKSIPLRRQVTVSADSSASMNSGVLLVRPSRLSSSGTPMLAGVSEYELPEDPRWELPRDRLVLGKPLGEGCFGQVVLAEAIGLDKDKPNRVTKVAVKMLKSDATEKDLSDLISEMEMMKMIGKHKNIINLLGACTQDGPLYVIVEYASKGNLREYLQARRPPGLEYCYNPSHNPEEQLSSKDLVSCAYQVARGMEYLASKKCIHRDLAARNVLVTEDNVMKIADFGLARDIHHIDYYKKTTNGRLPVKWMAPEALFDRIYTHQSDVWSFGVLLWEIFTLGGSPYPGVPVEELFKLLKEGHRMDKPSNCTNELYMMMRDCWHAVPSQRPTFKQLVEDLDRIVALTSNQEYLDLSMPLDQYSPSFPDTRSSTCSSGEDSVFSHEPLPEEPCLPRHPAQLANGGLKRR
T7 sequence (Q00532 whole entry, the tested form may be a part): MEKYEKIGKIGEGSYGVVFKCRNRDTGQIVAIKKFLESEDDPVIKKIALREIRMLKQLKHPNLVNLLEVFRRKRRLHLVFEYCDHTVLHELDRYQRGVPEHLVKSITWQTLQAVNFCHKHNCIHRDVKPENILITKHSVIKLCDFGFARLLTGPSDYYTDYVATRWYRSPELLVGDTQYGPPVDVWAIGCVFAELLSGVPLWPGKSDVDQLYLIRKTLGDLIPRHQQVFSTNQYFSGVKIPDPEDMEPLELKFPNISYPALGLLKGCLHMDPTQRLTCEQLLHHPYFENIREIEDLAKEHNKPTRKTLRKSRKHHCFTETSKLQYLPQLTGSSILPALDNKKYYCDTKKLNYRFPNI
T5 sequence (P12931 whole entry, the tested form may be a part): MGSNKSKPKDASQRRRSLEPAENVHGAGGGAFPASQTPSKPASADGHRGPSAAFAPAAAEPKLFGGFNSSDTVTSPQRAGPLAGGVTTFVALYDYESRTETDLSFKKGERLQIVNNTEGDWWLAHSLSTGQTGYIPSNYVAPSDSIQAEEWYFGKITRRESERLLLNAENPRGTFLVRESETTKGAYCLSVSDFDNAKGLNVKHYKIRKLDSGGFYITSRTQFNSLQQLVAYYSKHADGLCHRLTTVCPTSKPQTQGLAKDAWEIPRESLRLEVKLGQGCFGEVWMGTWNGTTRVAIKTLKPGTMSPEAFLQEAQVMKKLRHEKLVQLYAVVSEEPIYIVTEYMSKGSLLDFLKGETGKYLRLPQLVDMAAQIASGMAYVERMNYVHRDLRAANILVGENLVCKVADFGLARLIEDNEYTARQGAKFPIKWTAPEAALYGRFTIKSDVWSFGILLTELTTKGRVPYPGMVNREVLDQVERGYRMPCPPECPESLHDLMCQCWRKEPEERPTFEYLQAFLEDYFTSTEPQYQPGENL
T2 sequence (P07332 whole entry, the tested form may be a part): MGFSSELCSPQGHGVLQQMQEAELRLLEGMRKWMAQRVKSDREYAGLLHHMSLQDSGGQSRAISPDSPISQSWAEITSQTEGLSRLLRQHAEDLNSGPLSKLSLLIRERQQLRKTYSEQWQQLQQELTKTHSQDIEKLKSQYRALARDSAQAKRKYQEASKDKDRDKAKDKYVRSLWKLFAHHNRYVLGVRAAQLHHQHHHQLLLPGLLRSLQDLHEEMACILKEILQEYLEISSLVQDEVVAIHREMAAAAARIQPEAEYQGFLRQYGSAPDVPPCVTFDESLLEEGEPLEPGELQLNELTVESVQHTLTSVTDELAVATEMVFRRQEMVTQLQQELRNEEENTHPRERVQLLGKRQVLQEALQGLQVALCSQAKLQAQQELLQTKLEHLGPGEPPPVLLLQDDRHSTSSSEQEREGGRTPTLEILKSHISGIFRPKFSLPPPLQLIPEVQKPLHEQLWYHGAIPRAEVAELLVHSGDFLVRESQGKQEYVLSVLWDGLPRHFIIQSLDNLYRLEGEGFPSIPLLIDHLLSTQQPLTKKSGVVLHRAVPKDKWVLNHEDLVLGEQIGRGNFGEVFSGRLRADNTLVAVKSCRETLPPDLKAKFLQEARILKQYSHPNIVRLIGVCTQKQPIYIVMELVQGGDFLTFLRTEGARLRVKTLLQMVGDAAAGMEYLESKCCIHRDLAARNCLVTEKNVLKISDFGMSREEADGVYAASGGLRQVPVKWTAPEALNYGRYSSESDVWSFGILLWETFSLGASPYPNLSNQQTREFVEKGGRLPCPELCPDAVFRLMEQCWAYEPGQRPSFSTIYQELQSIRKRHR

For the molecule `O=C(Nc1cc(F)cc(Br)c1)C1(C(=O)Nc2cccc(-c3c[nH]c4ncnc(N5CCOCC5)c34)c2)CC1` [Compound 27], the dTm in test [1] is 0.76 K; in [2], 3.58 K; in test [3], 7.46 K; in test [4], 2.66 K; in test [5], 0.35 K; in test [6] it was -2.72 K. For the same molecule, the dTm was found to be 0.61 K in test [7], 0.40 K in [8] and 1.59 K in [9].

For `CC(C)(C)c1cc(NC(=O)Nc2cccc(-c3c[nH]c4ncnc(N5CCOCC5)c34)c2)n(-c2ccc3ncccc3c2)n1` [Compound 28], the dTm in [1] came out at 8.37 K; in test [2], 9.54 K; in test [3], 7.06 K; in [4], 1.76 K; in [5] it was 7.10 K; in test [6] it was 0.83 K. Also, the dTm in test [7] is reported as 8.21 K; in test [8] it was 9.59 K; in test [9], 0.24 K.

Regarding `Cc1ccc(-n2nc(C(C)(C)C)cc2NC(=O)Nc2cccc(-c3c[nH]c4ncnc(N5CCOCC5)c34)c2)cc1` [Compound 29], the dTm in test [1] is on record as 5.95 K; in test [2], 0.00 K; in [3], 7.43 K; in test [4] it was 2.48 K; in [5], 5.51 K; in [6], -0.41 K. In addition, the values for the dTm in [7], in test [8] and in test [9] were 10.84 K, 6.71 K and 0.25 K, respectively.

Turning to `Cc1ccc(-n2nc(C(C)(C)C)cc2NC(=O)Nc2cccc(-c3c[nH]c4nc(Cl)nc(N5CCOCC5)c34)c2)cc1` [Compound 30], the dTm in test [1] is on record as 1.65 K; in test [2], 3.55 K; in test [3], 0.27 K; in [4] it was 0.45 K; in test [5], 0.05 K; in [6] it was -0.62 K. For the same molecule, the dTm is 3.90 K in test [7], 0.15 K in [8] and -1.50 K in test [9].

Turning to `CC(=O)N1CCN(c2nc(Cl)nc3[nH]cc(-c4cccc(NC(=O)Nc5cc(C(C)(C)C)nn5-c5ccc(C)cc5)c4)c23)CC1` [Compound 31], the dTm in test [1] was 1.76 K; in test [2] it was 0.00 K; in test [3] it was 0.92 K; in test [4] it was 0.27 K; in test [5], 0.41 K; in [6] it was -0.30 K. Further, the figures for the dTm in test [7], in test [8] and in test [9] were 5.56 K, 1.56 K and -1.67 K, respectively.

For `CCSc1nc(NC)c2c(-c3cccc(NC(=O)Nc4cc(C(C)(C)C)nn4-c4ccc(C)cc4)c3)c[nH]c2n1` [Compound 32], the dTm stood at 0.60 K in [1]; 3.81 K in [2]; 0.44 K in test [3]; 0.13 K in test [4]; 0.61 K in [5]; 0.22 K in [6]. Moreover, the dTm in test [7] is reported as 9.64 K; in [8] it was 0.04 K; in test [9], -0.57 K.

Turning to `COc1cc(C(=O)N2CCOCC2)c(F)cc1Nc1nc(N(C)C)c2c(Cl)c[nH]c2n1` [Compound 36], the dTm is -0.10 K in [1]; 2.67 K in [2]; 4.06 K in test [3]; 9.56 K in test [4]; 0.60 K in [5]; -0.59 K in test [6]. Moreover, the dTm in [7] is recorded as 0.37 K; in test [8], -0.96 K; in [9], -1.95 K.

As to `COc1cc(S(C)(=O)=O)ccc1Nc1nc(N(C)C)c2c(Cl)c[nH]c2n1` [Compound 37], the dTm in test [1] was 0.09 K; in test [2], 2.13 K; in test [3], 1.01 K; in test [4] it was 5.52 K; in test [5], 0.09 K; in test [6], -0.22 K. The dTm is on record as 0.44 K in test [7], -0.48 K in test [8] and -1.44 K in test [9].

Regarding `COc1cc2c(Oc3ccc(NC(=O)C4(C(=O)Nc5ccc(F)cc5)CC4)cc3F)ccnc2cc1OCCCN1CCOCC1` [Foretinib, reference compound], the dTm turned out to be 5.33 K in test [1]; 6.46 K in [2]; 14.26 K in [3]; 2.25 K in test [4]; 8.21 K in test [5]; 0.92 K in test [6]. Besides, the dTm came out at 1.22 K in test [7], 11.59 K in test [8] and 0.36 K in test [9].

For the molecule `CCNc1nc(Nc2cc(F)c(C(=O)N3CCOCC3)cc2OC)ncc1C(F)(F)F` [GNE-7915], the dTm in test [1] is 0.25 K; in [2] it was 2.48 K; in test [3] it was 1.79 K; in test [4] it was 0.65 K; in [5], -0.11 K; in test [6], -0.40 K. In addition, the dTm is on record as 0.08 K in test [7], -0.45 K in test [8] and 0.65 K in [9].

`C[C@@H]1CN(c2cc(-c3n[nH]c4ccc(OC5(C)CC5)cc34)ncn2)C[C@H](C)O1` [MLi2]: the dTm in test [1] is reported as -0.19 K; in test [2], 1.83 K; in test [3] it was 0.19 K; in test [4], 0.18 K; in [5], 0.28 K; in test [6] it was -0.55 K. In addition, the dTm is on record as -0.11 K in test [7], -0.96 K in test [8] and 0.0124 K in [9].
